Laboratory results reported in PubChem BioAssay AID248 (DTP/NCI, 2004).
“And” between values parts separate entries of the source, which are not always exact repeats. Equal entries are not always repeated. Toxic doses and inconclusive results are not listed. Rule as the data show it: active = T/C of 150% or more; inactive = T/C below 125%.

Tested on: L1210 leukemia ip in BDF1 mice, survival T/C
Test: NCI In Vivo Anticancer Drug Screen. Data for tumor model L1210 Leukemia (intraperitoneal) in B6D2F1 (BDF1) mice
Details: endpoint: mean survival time, higher = longer survival
How it was run: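 Value reflects the ratio of survival in compound-treated mice to survival in vehicle-treated controls, with both groups carrying the same transplanted tumor.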

[1] = dose: 100.0 mg/kg/injection, schedule: Q01DX009 (ip), vehicle: saline with Tween-80
[2] = dose: 200.0 mg/kg/injection, schedule: Q01DX009 (ip), vehicle: saline with Tween-80
[3] = dose: 100.0 mg/kg/injection, schedule: Q01DX009 (ip), vehicle: saline
[4] = dose: 200.0 mg/kg/injection, schedule: Q01DX009 (ip), vehicle: saline
[5] = dose: 400.0 mg/kg/injection, schedule: Q01DX009 (ip), vehicle: saline
[6] = dose: 100.0 mg/kg/injection, schedule: Q04DX003 (ip), vehicle: saline
[7] = dose: 200.0 mg/kg/injection, schedule: Q04DX003 (ip), vehicle: saline
[8] = dose: 400.0 mg/kg/injection, schedule: Q04DX003 (ip), vehicle: saline
[9] = dose: 100.0 mg/kg/injection, schedule: Q01DX001 (ip), vehicle: saline
[10] = dose: 200.0 mg/kg/injection, schedule: Q01DX001 (ip), vehicle: saline
[11] = dose: 400.0 mg/kg/injection, schedule: Q01DX001 (ip), vehicle: saline
[12] = dose: 100.0 mg/kg/injection, schedule: Q01DX001 (ip), vehicle: Klucel (hydroxypropylcellulose) (HPC)
[13] = dose: 200.0 mg/kg/injection, schedule: Q01DX001 (ip), vehicle: Klucel (hydroxypropylcellulose) (HPC)
[14] = dose: 100.0 mg/kg/injection, schedule: Q04DX003 (ip), vehicle: Klucel (hydroxypropylcellulose) (HPC)
[15] = dose: 200.0 mg/kg/injection, schedule: Q04DX003 (ip), vehicle: Klucel (hydroxypropylcellulose) (HPC)
[16] = dose: 400.0 mg/kg/injection, schedule: Q04DX003 (ip), vehicle: Klucel (hydroxypropylcellulose) (HPC)

Measured: T/C

CC(C)=C(CO)CCC(C)C
inactive: dose: 50.0 mg/kg/injection, schedule: Q01DX009 (ip), vehicle: saline with Tween-80 100 % of control | [1] 94 % of control | [2] 89 % of control

CC(C)NC(=O)/C=C/C(=O)O
inactive: [3] 92 % of control | [4] 95 % of control | [5] 92 % of control

OC1CC2C=C(c3ccccc3)C1C2 (centres undefined)
inactive: dose: 100.0 mg/kg/injection, schedule: Q04DX003 (ip), vehicle: saline with Tween-80 96 % of control | dose: 200.0 mg/kg/injection, schedule: Q04DX003 (ip), vehicle: saline with Tween-80 93 % of control | dose: 400.0 mg/kg/injection, schedule: Q04DX003 (ip), vehicle: saline with Tween-80 88 % of control

CCC1(Cl)C(=O)OCc2c1cc1n(c2=O)Cc2cc3ccccc3nc2-1 (centres undefined)
inactive: dose: 1.0 mg/kg/injection, schedule: Q01DX001 (ip), vehicle: saline 97 % of control | dose: 1.0 mg/kg/injection, schedule: Q01DX Z (ip), vehicle: saline 100 % of control | dose: 2.0 mg/kg/injection, schedule: Q01DX001 (ip), vehicle: saline 101 % of control | dose: 2.0 mg/kg/injection, schedule: Q01DX Z (ip), vehicle: saline 95 % of control | dose: 4.0 mg/kg/injection, schedule: Q01DX001 (ip), vehicle: saline 100 % of control | dose: 4.0 mg/kg/injection, schedule: Q01DX Z (ip), vehicle: saline 97 % of control | dose: 6.0 mg/kg/injection, schedule: Q01DX001 (ip), vehicle: saline 95 % of control | dose: 6.0 mg/kg/injection, schedule: Q01DX Z (ip), vehicle: saline 103 % of control

O=[P+](O)c1ccccc1
inactive: [3] 94 % of control | [6] 103 % of control | [4] 100 % of control | [7] 98 % of control | [5] 100 % of control | [8] 101 % of control

O=C(NNc1ccccc1)c1ccc(Cl)cc1
inactive: dose: 100.0 mg/kg/injection, schedule: Q04DX002 (ip), vehicle: gum acacia 112 % of control | dose: 200.0 mg/kg/injection, schedule: Q04DX002 (ip), vehicle: gum acacia 87 % of control | dose: 400.0 mg/kg/injection, schedule: Q04DX002 (ip), vehicle: gum acacia 102 % of control

CN(C)CCNS(=O)(=O)N(C)C
inactive: [3] 102 % of control | [6] 95 % of control | [4] 102 % of control | [7] 100 % of control | [5] 108 % of control | [8] 97 % of control

O=c1[nH]c2ccccc2c(=O)o1
inactive: [9] 96 % of control | [10] 89 % of control | [11] 89 % of control

CCOC(=O)C1CC(O)CN1 (centres undefined)
inactive: dose: 100.0 mg/kg/injection, schedule: Q04DX003 (ip), vehicle: saline sonified 97 % of control | dose: 200.0 mg/kg/injection, schedule: Q04DX003 (ip), vehicle: saline sonified 100 % of control | dose: 400.0 mg/kg/injection, schedule: Q04DX003 (ip), vehicle: saline sonified 87 % of control

CC(=O)N(C)c1ccc(S(=O)(=O)Cl)cc1
inactive: [1] 101 % of control | [2] 95 % of control

O=C(OCc1cnccn1)c1cnccn1
inactive: [9] 107 % of control | [10] 94 % of control | [11] 100 % of control

N/C(=N/N=C/c1ccncc1)N/N=C\c1ccncc1
inactive: dose: 30.0 mg/kg/injection, schedule: Q01DX Z (ip), vehicle: carboxymethylcellulose (CMC) 89 % of control | dose: 30.0 mg/kg/injection, schedule: Q01DX Z (oral), vehicle: carboxymethylcellulose (CMC) 106 % of control | dose: 60.0 mg/kg/injection, schedule: Q01DX Z (ip), vehicle: carboxymethylcellulose (CMC) 87 % of control | dose: 60.0 mg/kg/injection, schedule: Q01DX Z (oral), vehicle: carboxymethylcellulose (CMC) 95 % of control | dose: 120.0 mg/kg/injection, schedule: Q01DX Z (ip), vehicle: carboxymethylcellulose (CMC) 92 % of control | dose: 120.0 mg/kg/injection, schedule: Q01DX Z (oral), vehicle: carboxymethylcellulose (CMC) 97 % of control and 123 % of control | dose: 240.0 mg/kg/injection, schedule: Q01DX Z (oral), vehicle: carboxymethylcellulose (CMC) 101 % of control and 104 % of control | dose: 480.0 mg/kg/injection, schedule: Q01DX Z (oral), vehicle: carboxymethylcellulose (CMC) 101 % of control

COc1ccc(C(=O)OCc2ccccc2CN2CCCC2)cc1
inactive: [12] 102 % of control | [13] 98 % of control

C=CCOc1c(Cl)c(Cl)c(Cl)c(Cl)c1Cl
inactive: dose: 100.0 mg/kg/injection, schedule: Q01DX009 (ip), vehicle: saline sonified 96 % of control | [14] 96 % of control | dose: 200.0 mg/kg/injection, schedule: Q01DX009 (ip), vehicle: saline sonified 91 % of control | [15] 96 % of control | dose: 400.0 mg/kg/injection, schedule: Q01DX009 (ip), vehicle: saline sonified 97 % of control | [16] 96 % of control

ClCC[N-]CC[N-]CCCl.[Cl][Pt+2][Cl]
inactive: [12] 113 % of control | [13] 107 % of control | [15] 104 % of control | [16] 88 % of control

CC(=O)Nc1ccc(Cl)cc1C(=O)O
inactive: dose: 100.0 mg/kg/injection, schedule: Q01DX009 (ip), vehicle: Klucel (hydroxypropylcellulose) (HPC) 97 % of control | [14] 97 % of control | dose: 200.0 mg/kg/injection, schedule: Q01DX009 (ip), vehicle: Klucel (hydroxypropylcellulose) (HPC) 90 % of control | [15] 94 % of control | dose: 400.0 mg/kg/injection, schedule: Q01DX009 (ip), vehicle: Klucel (hydroxypropylcellulose) (HPC) 93 % of control | [16] 102 % of control

C[CH2][Pb]([CH2]C)([CH2]C)[O]C(C)=O
inactive: dose: 0.62 mg/kg/injection, schedule: Q01DX009 (ip), vehicle: Klucel (hydroxypropylcellulose) (HPC) 96 % of control | dose: 1.25 mg/kg/injection, schedule: Q01DX009 (ip), vehicle: Klucel (hydroxypropylcellulose) (HPC) 102 % of control | dose: 2.5 mg/kg/injection, schedule: Q01DX009 (ip), vehicle: Klucel (hydroxypropylcellulose) (HPC) 93 % of control and 94 % of control | dose: 5.0 mg/kg/injection, schedule: Q01DX001 (ip), vehicle: carboxymethylcellulose (CMC) 100 % of control | dose: 5.0 mg/kg/injection, schedule: Q04DX003 (ip), vehicle: Klucel (hydroxypropylcellulose) (HPC) 90 % of control | dose: 10.0 mg/kg/injection, schedule: Q01DX001 (ip), vehicle: carboxymethylcellulose (CMC) 103 % of control | dose: 10.0 mg/kg/injection, schedule: Q04DX003 (ip), vehicle: Klucel (hydroxypropylcellulose) (HPC) 95 % of control

CCCCCCCCCCCCSC(SCCCCCCCCCCCC)SCCCCCCCCCCCC
inactive: dose: 100.0 mg/kg/injection, schedule: Q01DX001 (ip), vehicle: other 95 % of control | dose: 200.0 mg/kg/injection, schedule: Q01DX001 (ip), vehicle: other 106 % of control | dose: 400.0 mg/kg/injection, schedule: Q01DX001 (ip), vehicle: other 95 % of control
